In US20170280720A1, “ARGININE […] INHIBITORS AND USES THEREOF” (EPIZYME, INC., priority 2014, published 2017):

Legend:
Human CARM1 (PRMT4) = molecular target: T1, Human CARM1 (PRMT4) (Homo sapiens, UniProt Q86X55); assay: CARM1 biochemical assay (3H-SAM Flashplate, peptide substrate); settings: read-out: CARM1_ IC50
T1 construct: Flag-CARM1-His; made in house; host or cells: HEK 293F cells (BacMam baculovirus, pFastBacMam)
T1 sequence (Q86X55 2-585 isoform Q86X55-1): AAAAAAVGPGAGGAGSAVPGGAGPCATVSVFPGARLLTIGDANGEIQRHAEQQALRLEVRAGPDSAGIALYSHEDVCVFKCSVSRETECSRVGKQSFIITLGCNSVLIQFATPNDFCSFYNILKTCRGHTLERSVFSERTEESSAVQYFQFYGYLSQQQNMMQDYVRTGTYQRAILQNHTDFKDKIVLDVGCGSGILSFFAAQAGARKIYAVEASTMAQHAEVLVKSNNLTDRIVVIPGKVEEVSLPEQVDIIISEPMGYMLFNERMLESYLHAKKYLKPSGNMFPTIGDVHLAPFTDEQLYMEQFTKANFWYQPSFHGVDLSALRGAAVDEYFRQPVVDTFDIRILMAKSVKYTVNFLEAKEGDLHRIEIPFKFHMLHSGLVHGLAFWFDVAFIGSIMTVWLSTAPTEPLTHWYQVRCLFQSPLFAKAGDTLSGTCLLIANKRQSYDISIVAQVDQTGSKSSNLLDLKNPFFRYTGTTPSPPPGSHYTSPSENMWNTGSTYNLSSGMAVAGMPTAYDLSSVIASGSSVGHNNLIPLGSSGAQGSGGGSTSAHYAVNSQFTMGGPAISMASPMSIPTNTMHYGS
Method in brief: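 FLAG/His-tagged human CARM1 (isoform 1, Δ539-561, baculovirus-expressed), 0.25 nM, preincubated 30 min at room temperature with compound (2% DMSO) in 20 mM Bicine pH 7.6, then reacted with 30 nM 3H-SAM and 250 nM biotinylated H3 16-30 peptide (R26 monomethyl). Stopped with 300 uM cold SAM; labelled peptide captured on streptavidin Flashplate; % inhibition versus DMSO and 1 mM SAH controls fitted to a 4- or 3-parameter curve.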

PRMT5 = PRMT5 (Homo sapiens, UniProt O14744); assay: PRMT5 IC50 (Table 2; no method described); type: biochemical; settings: read-out: PRMT5_ IC50
Sequence of PRMT5 (O14744 whole entry, species assumed): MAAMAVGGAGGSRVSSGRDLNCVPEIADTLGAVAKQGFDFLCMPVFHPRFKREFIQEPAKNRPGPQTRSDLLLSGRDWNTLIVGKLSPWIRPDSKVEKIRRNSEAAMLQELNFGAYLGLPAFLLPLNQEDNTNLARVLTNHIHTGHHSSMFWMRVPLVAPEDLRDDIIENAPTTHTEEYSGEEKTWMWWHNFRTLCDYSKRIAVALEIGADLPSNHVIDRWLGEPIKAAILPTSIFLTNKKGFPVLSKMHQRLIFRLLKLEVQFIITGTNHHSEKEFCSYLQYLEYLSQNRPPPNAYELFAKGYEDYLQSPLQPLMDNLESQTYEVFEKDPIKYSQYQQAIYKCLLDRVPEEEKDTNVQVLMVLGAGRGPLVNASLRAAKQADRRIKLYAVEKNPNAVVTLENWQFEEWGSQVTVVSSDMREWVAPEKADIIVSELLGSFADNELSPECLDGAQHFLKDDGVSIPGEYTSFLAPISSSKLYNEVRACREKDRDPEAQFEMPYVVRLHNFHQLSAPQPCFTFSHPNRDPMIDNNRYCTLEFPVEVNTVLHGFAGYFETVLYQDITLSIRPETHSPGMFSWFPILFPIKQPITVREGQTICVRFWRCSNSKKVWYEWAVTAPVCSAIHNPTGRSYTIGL
Sequence of PRMT5 (Q9BQA1 whole entry partner, species assumed): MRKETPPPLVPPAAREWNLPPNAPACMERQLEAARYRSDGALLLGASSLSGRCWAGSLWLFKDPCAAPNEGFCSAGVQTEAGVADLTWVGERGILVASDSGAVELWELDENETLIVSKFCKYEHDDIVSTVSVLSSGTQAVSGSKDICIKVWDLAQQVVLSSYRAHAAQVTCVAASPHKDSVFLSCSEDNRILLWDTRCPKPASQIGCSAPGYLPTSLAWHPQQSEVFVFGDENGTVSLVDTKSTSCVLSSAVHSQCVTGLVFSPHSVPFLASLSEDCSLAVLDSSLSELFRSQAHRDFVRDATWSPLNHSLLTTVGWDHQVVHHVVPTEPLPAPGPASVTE

[1] = tested on: asymmetric di-methyl PABP1 in RKO cells; assay: In Cell Western (ICW) for asymmetric di-methyl PABP1 and DNA content in RKO cells; type: cell-based; settings: Homo sapiens, RKO
Method in brief: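 RKO cells treated with compound for 48 h at 37 °C, then fixed, methanol-permeabilized and stained for asymmetric di-methyl PABP1 (800 nm) with DRAQ5 DNA stain (700 nm). Signal ratio normalized to DMSO and 20 μM reference-compound controls. IC50 from nine 3-fold dilutions in triplicate.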

Row | SMILES | IC50 (Human CARM1 (PRMT4)) [nM] | IC50 (PRMT5) [nM] | IC50 ([1]; In Cell Western) [nM] | IC50 ([1]; 48 h) [nM]
1 | CC(C)n1ncc2c(C(=O)N(C)[C@@H](C)c3ccccc3)cc(-c3cccc(CN(C)CCN)c3)nc21 [Compound 193] | 13.5 | 790 | – | –
2 | CNCCN(C)Cc1cccc(-c2cc(C(=O)N(C)Cc3cccc(Cl)c3)c3cnn(C(C)C)c3n2)c1 [Compound 237] | 48.1 | 1480 | – | –
3 | CC(C)n1ncc2c(C(=O)N(C)Cc3ccc(F)cc3)cc(-c3cccc(CN(C)CCN)c3)nc21 [Compound 240] | 49.7 | 7420 | – | –
4 | CC(C)n1ncc2c(C(=O)N(C)Cc3ccccc3Cl)cc(-c3cccc(CN(C)CCN)c3)nc21 [Compound 242] | 51.9 | 235 | – | –
5 | CNCCN(C)Cc1cccc(-c2cc(C(=O)N(C)Cc3cccc(F)c3)c3cnn(C(C)C)c3n2)c1 [Compound 244] | 53.1 | 2830 | – | –
6 | CNCCN(C)Cc1cccc(-c2cc(C(=O)N(C)C(C)c3ccccc3)c3cnn(C(C)C)c3n2)c1 (stereo not shown) [Compound 246] | 54.3 | 577 | – | –
7 | CC(C)n1ncc2c(C(=O)N(C)Cc3ccccc3F)cc(-c3cccc(CN(C)CCN)c3)nc21 [Compound 250] | 58.3 | 816 | – | –
8 | CC(C)n1ncc2c(C(=O)NCc3cccc(F)c3)cc(-c3cccc(CN(C)CCN)c3)nc21 [Compound 251] | 59.1 | 47300 | – | –
9 | CC(C)n1ncc2c(C(=O)N3CCC(F)C3)cc(-c3cccc(CN(C)CCN)c3)nc21 (stereo not shown) [Compound 257] | 63.5 | – | 10300 | –
10 | CC(C)n1ncc2c(C(=O)N3CCSCC3)cc(-c3cccc(CN(C)CCN)c3)nc21 [Compound 258] | 64.2 | – | 18500 | –
11 | CNCCN(C)Cc1cccc(-c2cc(C(=O)NCc3cccc(F)c3)c3cnn(C(C)C)c3n2)c1 [Compound 259] | 67 | – | 20000 | –
12 | CNCCN(C)Cc1cccc(-c2cc(C(=O)N[C@@H](C)c3ccccc3)c3cnn(Cc4ccncc4)c3n2)c1 [Compound 260] | 68.2 | – | 20000 | –
13 | CC(C)n1ncc2c(C(=O)N3CCC(F)(F)C3)cc(-c3cccc(CN(C)CCN)c3)nc21 [Compound 261] | 69.4 | – | 20000 | –
14 | CC(C)n1ncc2c(C(=O)NCc3cn(C)cn3)cc(-c3cccc(CN(C)CCN)c3)nc21 [Compound 262] | 70.2 | – | 10200 | –
15 | CC(C)n1ncc2c(C(=O)N(C)C3CCOCC3)cc(-c3cccc(CN(C)CCN)c3)nc21 [Compound 265] | 74.4 | – | 10300 | –
16 | CC(C)n1ncc2c(C(=O)N(C)Cc3cccc(Cl)c3)cc(-c3cccc(CN(C)CCN)c3)nc21 [Compound 266] | 74.9 | 1790 | – | –
17 | CC(C)n1ncc2c(C(=O)N3CCc4ccccc4C3)cc(-c3cccc(CNCCN)c3)nc21 [Compound 269] | 79.9 | 13100 | – | –
18 | CNCCN(C)Cc1cccc(-c2cc(C(=O)NC3CCOCC3)c3cnn(CC(F)(F)F)c3n2)c1 [Compound 270] | 81 | – | 5140 | –
19 | CCNCCN(C)Cc1cccc(-c2cc(C(=O)NCC3CCOCC3)c3cnn(C(C)C)c3n2)c1 [Compound 271] | 81.4 | – | 20000 | –
20 | CC(C)n1ncc2c(C(=O)N3CCN(C)C(=O)C3)cc(-c3cccc(CN(C)CCN)c3)nc21 [Compound 272] | 84.8 | – | 20000 | –
21 | CC(C)n1ncc2c(C(=O)NCC3CCOCC3)cc(-c3cccc(CN(C)CCNC4CCC4)c3)nc21 [Compound 273] | 87.7 | – | 14500 | –
22 | COC1CCN(C(=O)c2cc(-c3cccc(CN(C)CCN)c3)nc3c2cnn3C(C)C)C1 (stereo not shown) [Compound 274] | 89.3 | – | 20000 | –
23 | CNCCN(C)Cc1cccc(-c2cc(-c3ccc(F)cc3)c3cnn(C(C)C)c3n2)c1 [Compound 275] | 92.8 | – | 20000 | –
24 | CNCCN(C)Cc1cccc(-c2cc(C(=O)NCc3ccc(F)cc3)c3cnn(C(C)C)c3n2)c1 [Compound 276] | 94.1 | – | 20000 | –
25 | CNCCN(C)Cc1cccc(-c2cc(C(=O)NCC3CCOCC3)c3cnn(CC(F)(F)F)c3n2)c1 [Compound 277] | 105 | – | 7200 | –
26 | CNCCN(C)Cc1cccc(-c2cc(C(=O)N(C)Cc3ccc(F)cc3)c3cnn(C(C)C)c3n2)c1 [Compound 278] | 110 | 8730 | – | –
27 | CC(C)n1ncc2c(C(=O)N3CCOCC3)cc(-c3cccc(CN(C)CCN)c3)nc21 [Compound 279] | 113 | – | 18700 | –
28 | CNCCN(C)Cc1cccc(-c2cc(C(=O)NCc3cncn3C)c3cnn(C(C)C)c3n2)c1 [Compound 280] | 113 | – | 9490 | –

Row | SMILES | IC50 (Human CARM1 (PRMT4)) [nM] | IC50 (PRMT5) [nM] | IC50 ([1]; In Cell Western) [nM] | IC50 ([1]; 48 h) [nM]
29 | CNCCN(C)Cc1cccc(-c2cc(C(=O)N[C@@H](C)c3ccccc3)c3cnn(Cc4ccccc4)c3n2)c1 [Compound 281] | 128 | 17400 | – | –
30 | CC(C)n1ncc2c(C(=O)N(C)Cc3ccccn3)cc(-c3cccc(CN(C)CCN)c3)nc21 [Compound 282] | 130 | – | 8200 | –
31 | CNCCN(C)Cc1cccc(-c2cc(C(=O)NC3CCOCC3)c3cnn(C)c3n2)c1 [Compound 284] | 137 | – | 20000 | –
32 | C=CCn1ncc2c(C(=O)NCC3CCOCC3)cc(-c3cccc(CN(C)CCNC)c3)nc21 [Compound 286] | 148 | – | 7150 | –
33 | CNCCN(C)Cc1cccc(-c2cc(C(=O)NCC(F)(F)F)c3cnn(C(C)C)c3n2)c1 [Compound 288] | 159 | – | 3440 | –
34 | CNCCN(C)Cc1cccc(-c2cc(C(=O)NCC3CCOCC3)c3cnn(C)c3n2)c1 [Compound 289] | 163 | – | 16900 | –
35 | CNCCN(C)Cc1cccc(-c2cc(CO)c3cnn(C(C)C)c3n2)c1 [Compound 290] | 167 | – | 20000 | –
36 | CNCCN(C)Cc1cccc(-c2cc(C(=O)N(C)C3CC3)c3cnn(C(C)C)c3n2)c1 [Compound 292] | 171 | – | 14000 | –
37 | CNCCN(C)Cc1cccc(-c2cc(C(F)(F)F)c3cnn(C(C)C)c3n2)c1 [Compound 293] | 173 | – | 17600 | –
38 | CNCCN(C)Cc1cccc(-c2cc(C(=O)N(C)Cc3cccnc3)c3cnn(C(C)C)c3n2)c1 [Compound 294] | 177 | – | 4020 | –
39 | CC(C)n1ncc2c(C(=O)NC3CCOCC3)cc(-c3cccc(CN(C)CCNC4CC4)c3)nc21 [Compound 295] | 181 | – | 12400 | –
40 | CNCCN(C)Cc1cccc(-c2cc(C(=O)N3CCN(C)C(=O)C3)c3cnn(C(C)C)c3n2)c1 [Compound 296] | 183 | – | 15700 | –
41 | CC(C)n1cc2c(C(=O)NCC3CCOCC3)cc(-c3cccc(CN(C)CCN)c3)nc2n1 [Compound 297] | 189 | – | 20000 | –
42 | CNCCN(C)Cc1cccc(-c2cc(C(=O)N(C)CC3CCOCC3)c3cnn(C(C)C)c3n2)c1 [Compound 298] | 200 | – | 9620 | –
43 | CNCCN(C)Cc1cccc(-c2cc(C(=O)N3Cc4cccnc4C3)c3cnn(C(C)C)c3n2)c1 [Compound 301] | 209 | – | 15500 | –
44 | CNCCN(C)Cc1cccc(-c2cc(C(O)c3ccncc3)c3cnn(C(C)C)c3n2)c1 (stereo not shown) [Compound 307] | 250 | – | 20000 | –
45 | CNC(=O)c1cc(-c2cccc(CNCCN)c2)nc2c1cnn2C(C)C [Compound 311] | 293 | – | 14200 | –
46 | CC(C)n1ncc2c(NCC(=O)O)cc(-c3cccc(CN(C)CCN)c3)nc21 [Compound 319] | 401 | – | 20000 | –
47 | NCCNCc1ccc(-c2ccc3cnn(Cc4cccc(C(=O)N5CCOCC5)c4)c3c2)cc1 [Compound 349] | – | 117 | – | –
48 | NCCNCc1ccc(-c2ccc3cnn(Cc4ccncc4)c3c2)cc1 [Compound 350] | – | 172 | – | –
49 | NCCNCc1ccc(-c2ccc3cnn(C4CCNCC4)c3c2)cc1 [Compound 351] | – | 235 | – | –
50 | CC(=O)N1CCC(Cn2cnc3ccc(-c4ccc(CNCCN)cc4)cc32)CC1 [Compound 352] | – | 325 | – | –
51 | CC(=O)N1CCC(Cn2ncc3ccc(-c4ccc(CNCCN)cc4)cc32)CC1 [Compound 353] | – | 351 | – | –
52 | CC(C)(C)C(=O)Cn1cnc2cc(-c3ccc(CNCCN)cc3)ccc21 [Compound 354] | – | 452 | – | –
53 | CN(CCc1ccccn1)C(=O)c1cncc(-c2ccc(CNCCN)cc2)c1 [Compound 357] | – | 393 | – | –
54 | CCN(c1cc(-c2cccc(CN(C)CCNC)c2)cc(C(=O)NCc2c(C)cc(C)[nH]c2=O)c1C)C1CCOCC1 [Compound 387] | 97.2 | – | – | 10900
55 | Cc1cc(C)c(CNC(=O)c2cc(-c3cc(CNCCN)ccc3C)cc3c2cnn3C(C)C)c(=O)[nH]1 [Compound 388] | 149 | – | – | ≥ 20000
